Measured values taken from patent US20250064789A1, “KETOAMIDE DERIVATIVES AND PHARMACEUTICAL USES THEREOF” (priority 2022, published 2025).
Read-outs that look alike come from different tables or passages of the source.

Target: recombinant SARS-CoV-2 M^pro (Severe acute respiratory syndrome coronavirus 2 (2019-nCoV) (SARS-CoV-2), UniProt P0DTD1)
Experiment: Inhibition of SARS-CoV-2 M^pro enzyme activity (fluorescent substrate assay)
Format: biochemical
Details: inhibition of SARS-CoV-2 M^pro enzyme activity, read-out: IC50

SMILES: CC(C)(C)C(NC(=O)c1ccc(F)cc1)C(=O)N[C@H](Cc1ccccc1)C(=O)C(=O)NCc1ccccn1 (stereo partly shown) [Compound 252]
- IC50 (values in nM): 94.9 ± 2.7 nM

SMILES: COC[C@@H](NC(=O)c1ccc(F)cc1)C(=O)N[C@H](Cc1ccccc1)C(=O)C(=O)NCc1ccccn1 [Compound 253]
- IC50 (values in nM): 22.4 ± 1.4 nM

SMILES: NC(=O)C[C@@H](NC(=O)c1ccc(F)cc1)C(=O)N[C@H](Cc1ccccc1)C(=O)C(=O)NCc1ccccn1 [Compound 254]
- IC50 (values in nM): 45.5 ± 3.1 nM

SMILES: CC(C)(C)OC(=O)NCC(C)(C)C(=O)N[C@H](Cc1ccccc1)C(=O)C(=O)NCc1ccccn1 [Compound 255]
- IC50 (values in nM): 111 ± 4.1 nM

SMILES: O=C(NCc1ccccn1)C(=O)[C@@H](Cc1ccccc1)NC(=O)C1[C@H]2CCC[C@H]2CN1C(=O)c1cc2cc(Cl)ccc2o1 (stereo partly shown) [Compound 256]
- IC50 (values in nM): 20.5 ± 1.7 nM

SMILES: O=C(NCc1ccccn1)C(=O)[C@@H](Cc1ccccc1)NC(=O)[C@@H]1[C@H]2CCC[C@H]2CN1C(=O)COc1ccc(Cl)c(Cl)c1 [Compound 257]
- IC50 (values in nM): 71.8 ± 0.1 nM

SMILES: O=C(NCc1ccccn1)C(=O)[C@@H](Cc1ccccc1)NC(=O)[C@@H]1[C@H]2CCC[C@H]2CN1C(=O)NC1CCCCC1 [Compound 258]
- IC50 (values in nM): 93.2 ± 0.6 nM

SMILES: O=C(NCc1ccccn1)C(=O)[C@@H](Cc1ccccc1)NC(=O)[C@@H]1[C@H]2CCC[C@H]2CN1C(=O)CC1CCC(F)(F)CC1 [Compound 259]
- IC50 (values in nM): 21.4 ± 3.5 nM

SMILES: O=C(NCc1ccccn1)C(=O)[C@@H](Cc1ccccc1)NC(=O)[C@@H]1[C@H]2CCC[C@H]2CN1C(=O)c1cnccn1 [Compound 260]
- IC50 (values in nM): 742 ± 6.3 nM

SMILES: O=C(NCc1ccccn1)C(=O)[C@@H](Cc1ccccc1)NC(=O)[C@@H]1[C@H]2CCC[C@H]2CN1C(=O)[C@@H](NC(=O)c1cnccn1)C1CCCCC1 [Compound 261]
- IC50 (values in nM): 863.6 ± 0.1 nM

SMILES: CC1(C)[C@@H]2[C@@H](C(=O)N[C@H](Cc3ccccc3)C(=O)C(=O)NCc3ccccn3)N(C(=O)C3CCC(F)(F)CC3)C[C@@H]21 [Compound 262]
- IC50 (values in nM): 933.7 ± 5 nM

SMILES: O=C(NCc1ccccn1)C(=O)[C@@H](Cc1ccccc1)NC(=O)[C@@H]1C[C@@H]2CCC[C@@H]2N1C(=O)C1CCC(F)(F)CC1 [Compound 263]
- IC50 (values given in μM): 1560 ± 50 nM

SMILES: O=C(NCc1ccccn1)C(=O)[C@@H](Cc1ccccc1)NC(=O)[C@@H]1C[C@@H]2CCCC[C@@H]2N1C(=O)C1CCC(F)(F)CC1 [Compound 264]
- IC50 (values given in μM): > 2500 nM

SMILES: O=C(NCc1ccccn1)C(=O)[C@@H](Cc1ccccc1)NC(=O)[C@H]1C[C@@H]2CCCC[C@@H]2N1C(=O)C1CCC(F)(F)CC1 [Compound 265]
- IC50 (values in nM): 15.6 ± 0.1 nM

SMILES: O=C(NCc1ccccn1)C(=O)[C@@H](Cc1ccccc1)NC(=O)C1c2ccccc2CN1C(=O)C1CCC(F)(F)CC1 (stereo partly shown) [Compound 266]
- IC50 (values in nM): 34.4 ± 2.3 nM

SMILES: O=C(NCc1ccccn1)C(=O)[C@@H](Cc1ccccc1)NC(=O)[C@H]1Cc2ccccc2CN1C(=O)C1CCC(F)(F)CC1 [Compound 267]
- IC50 (values in nM): 11.2 ± 0.3 nM

SMILES: O=C(NCc1ccccn1)C(=O)[C@@H](Cc1ccccc1)NC(=O)[C@@H]1C[C@H]2C[C@H]2N1C(=O)C1CCC(F)(F)CC1 [Compound 268]
- IC50 (values in nM): 296 ± 3.8 nM

SMILES: O=C(NCc1ccccn1)C(=O)[C@@H](Cc1ccccc1)NC(=O)[C@H]1C[C@H]2C[C@H]2N1C(=O)C1CCC(F)(F)CC1 [Compound 269]
- IC50 (values in nM): 19.6 ± 0.4 nM

SMILES: O=C(NCc1ccccn1)C(=O)[C@@H](Cc1ccccc1)NC(=O)[C@@H]1[C@H]2CC[C@H](C2)N1C(=O)C1CCC(F)(F)CC1 [Compound 270]
- IC50 (values given in μM): > 2500 nM

SMILES: O=C(NCc1ccccn1)C(=O)[C@@H](Cc1ccccc1)NC(=O)[C@H]1Cc2ccccc2CN1C(=O)[C@@H](NC(=O)c1cnccn1)C1CCCCC1 [Compound 271]
- IC50 (values in nM): 11.5 ± 0.1 nM

SMILES: O=C(NCc1ccccn1)C(=O)[C@@H](Cc1ccccc1)NC(=O)[C@@H]1CC2(CC2)CN1C(=O)C1CCC(F)(F)CC1 [Compound 272]
- IC50 (values given in μM): > 2500 nM

SMILES: O=C(NCc1ccccn1)C(=O)[C@@H](Cc1ccccc1)NC(=O)[C@H]1C[C@@H]2C[C@@H]2N1C(=O)CC1CCC(F)(F)CC1 [Compound 273]
- IC50 (values in nM): 17 ± 0.1 nM

SMILES: O=C(NCc1ccccn1)C(=O)[C@@H](Cc1ccccc1)NC(=O)C12CC(CN1C(=O)C1CCC(F)(F)CC1)C2 [Compound 274]
- IC50 (values in nM): 910.8 ± 6.5 nM

SMILES: O=C(NCc1ccccn1)C(=O)[C@@H](Cc1ccccc1)NC(=O)[C@H]1CC(F)(F)CN1C(=O)CC1CCC(F)(F)CC1 [Compound 276]
- IC50 (values in nM): 13 ± 0.8 nM

SMILES: O=C(NCc1ccccn1)C(=O)[C@@H](Cc1ccccc1)NC(=O)[C@H]1CC(F)(F)CN1C(=O)C1(F)CCCCC1 [Compound 277]
- IC50 (values in nM): 30.7 ± 0.6 nM

SMILES: O=C(NCc1ccccn1)C(=O)[C@@H](Cc1ccccc1)NC(=O)[C@H]1CC(F)CN1C(=O)C1CCC(F)(F)CC1 (stereo partly shown) [Compound 278]
- IC50 (values in nM): 33.7 ± 0.5 nM

SMILES: O=C(NCc1ccccn1)C(=O)[C@@H](Cc1ccccc1)NC(=O)C1CCN(Cc2ccccc2)C1 (stereo partly shown) [Compound 279]
- IC50 (values in nM): 272 ± 6.2 nM

SMILES: O=C(NCc1ccccn1)C(=O)[C@@H](Cc1ccccc1)NC(=O)[C@@H]1CCCN1C(=O)[C@@H](NC(=O)c1cnccn1)C1CCCCC1 [Compound 280]
- IC50 (values in nM): 13.2 ± 1.2 nM

SMILES: O=C(NCc1ccccn1)C(=O)[C@@H](Cc1ccccc1)NC(=O)[C@H]1CCCCN1C(=O)[C@H]1CC[C@@H](C(F)(F)F)CC1 [Compound 281]
- IC50 (values in nM): 14.8 ± 0.1 nM

SMILES: O=C(NCc1ccccn1)C(=O)[C@@H](Cc1ccccc1)NC(=O)[C@H]1CCCCN1C(=O)C1CCC(F)(F)CC1 [Compound 282]
- IC50 (values in nM): 13.4 ± 0.4 nM

SMILES: O=C(NCc1ccccn1)C(=O)[C@@H](Cc1ccccc1)NC(=O)[C@H]1CCCCN1C(=O)CC1CCC(F)(F)CC1 [Compound 283]
- IC50 (values in nM): 14.6 nM

SMILES: O=C(NCc1ccccn1)C(=O)[C@@H](Cc1ccccc1)NC(=O)[C@H]1CCCCN1C(=O)[C@H](NC(=O)c1cnccn1)C1CCCCC1 [Compound 284]
- IC50 (values in nM): 14.4 ± 0.2 nM

SMILES: O=C(NCc1ccccn1)C(=O)[C@@H](Cc1ccccc1)NC(=O)[C@H]1CCCCN1C(=O)CCC1CCC(F)(F)CC1 [Compound 285]
- IC50 (values in nM): 17.1 ± 0.2 nM

SMILES: O=C(NCc1ccccn1)C(=O)[C@@H](Cc1ccccc1)NC(=O)[C@H]1CCCCN1C(=O)[C@@H]1C[C@@H]2[C@H](C1)C2(F)F [Compound 286]
- IC50 (values in nM): 16.3 ± 1.5 nM

SMILES: O=C(NCc1ccccn1)C(=O)[C@@H](Cc1ccccc1)NC(=O)[C@H]1COCCN1C(=O)[C@H]1CC[C@@H](C(F)(F)F)CC1 [Compound 287]
- IC50 (values in nM): 24.1 nM

SMILES: O=C(NCc1ccccn1)C(=O)[C@@H](Cc1ccccc1)NC(=O)[C@H]1COCCN1C(=O)CCC1CCC(F)(F)CC1 [Compound 291]
- IC50 (values in nM): 13.1 ± 2.8 nM

SMILES: O=C(NCc1ccccn1)C(=O)[C@@H](Cc1ccccc1)NC(=O)[C@@H]1COCCN1C(=O)CC1CCC(F)(F)CC1 [Compound 292]
- IC50 (values in nM): 11.4 ± 0.2 nM

SMILES: O=C(NCc1ccccn1)C(=O)[C@@H](Cc1ccccc1)NC(=O)[C@H]1COCCN1C(=O)[C@@H]1C[C@@H]2[C@H](C1)C2(F)F [Compound 293]
- IC50 (values in nM): 16.4 ± 1.1 nM

SMILES: O=C(NCc1ccccn1)C(=O)[C@@H](Cc1ccccc1)NC(=O)[C@H]1COCCN1C(=O)C1(F)CCCCC1 [Compound 294]
- IC50 (values in nM): 14.5 ± 0.2 nM

SMILES: C[C@@H](NC(=O)NC1CCC(F)(F)CC1)C(=O)N[C@H](Cc1ccccc1)C(=O)C(=O)NCc1ccccn1 [Compound 295]
- IC50 (values in nM): 12.2 nM

SMILES: C[C@@H](NC(=O)N1CCC(C(F)(F)F)CC1)C(=O)N[C@H](Cc1ccccc1)C(=O)C(=O)NCc1ccccn1 [Compound 297]
- IC50 (values in nM): 18.1 ± 0.3 nM

SMILES: C[C@@H](NC(=O)N1CC2(C1)CC(F)(F)C2)C(=O)N[C@H](Cc1ccccc1)C(=O)C(=O)NCc1ccccn1 [Compound 298]
- IC50 (values in nM): 14.9 ± 0.1 nM

SMILES: O=C(NC1CCC(F)(F)CC1)NC1(C(=O)N[C@H](Cc2ccccc2)C(=O)C(=O)NCc2ccccn2)CC1 [Compound 299]
- IC50 (values in nM): 15.7 ± 0.1 nM
